Laboratory results taken from US11708366B2, “Heteroaryl substituted spiropiperidinyl derivatives and pharmaceutical uses thereof” (Novartis AG, priority 2020, dated 2023).
pIC50: −log10 of the molar value. Where two headings read alike, the source gives them in different places.

Target: LTC4S (Homo sapiens (Human), UniProt Q16873)
Assay: Human whole blood HTRF assay (LTC4 release after calcium ionophore A23187)
Type: cell-based
Details: calcium ionophore A23187 stimulation, LTC4 by HTRF
Protocol: B. Human Whole Blood HTRF Assay
LTC4 synthase catalyzes the conversion of Leukotriene A4 (LTA4) to Leukotriene C4 (LTC4) in the presence of reduced glutathione (GSH) as a co-substrate. For testing the inhibition of LTC4S, compounds are prepared for either eight-point or sixteen-point dose response studies in 384-well Labcyte low dead volume (LDV) plates. For eight-point dose response studies, compounds are diluted 1:5 starting at 1 μM concentration in 90% DMSO. […] Compounds are studied in duplicates. Ten wells are filled with 90% DMSO which correspond to the stimulated and unstimulated control wells. […] The morning of the assay, whole blood is collected from three human donors. Donors must be non-smokers and must not have taken NSAIDs within the 48 hours prior to blood collection. The amount of blood collected per donor depends on the amount of compounds to be tested and the dose response format in which they are to be studied (about 8 mL of whole blood for either 22 compounds in 8-point dose response format or 11 compounds in 16-point dose response format). […] 50 μL of diluted blood are then dispensed into each assay plate well with pre-dispensed compounds and DMSO for the stimulated and unstimulated controls using a Thermo Scientific™ Multidrop™ Combi reagent dispenser, and incubated at 37° C. for 4 hours. Calcium ionophore A23187 is used to induce a rapid increase in intracellular levels of Ca^2+. The Ca^2+ functions as a universal second messenger in various immune cells, such as T cells, B cells and mast cells, and is used to induce degranulation and release of eicosanoids, including LTC4, by cells contained in the whole blood samples. […] All but the unstimulated control wells are subsequently stimulated by dispensing 1 μL of the 0.5 mg/mL calcium ionophore suspension using the Thermo Scientific™ Multidrop™ Combi reagent dispenser. Plates are incubated for 15 minutes at 37° C. Plates are then centrifuged at 300 g for 10 minutes at room temperature to pellet blood cells and stop the reaction. […] Plates are sealed and stored at −80° C.
In order to measure the amount of LTC4 released by cells in the human blood samples during calcium ionophore stimulation, supernatants are analyzed using the Cisbio LTC4 homogeneous time-resolved FRET (HTRF) kit (Cisbio #64LC4PEH). […] Ten serially diluted standard curve solutions are also dispensed in duplicate into each plate as instructed in the protocol. Blank controls and cryptate control wells are also prepared. Then, 5 μL of anti-LTC4-d2 working solution are dispensed into all the wells, but the cryptate control wells. Subsequently, 5 μL of anti-LTC4-Eu3+ cryptate working solution are dispensed into all the wells. Plates are then covered with a lid and incubated at room temperature for one hour with gentle orbital shaking (˜450 rpm). […] HTRF ratios are calculated for each well by dividing the 665 nm intensity by the 620 nm intensity, and multiplying the resulting ratio by 10,000. LTC4 standard curves are interpolated for each plate and used to convert the HTRF ratio readouts into the amount of LTC4 present in each well (in ng/mL). Parametric curve fitting is used to obtain inhibition curves and IC50 values.

[1] = human whole blood diluted 1:3, 4 h incubation, read-out: human whole blood HTRF IC50

Molecule	pIC50 [1]	pIC50 (human whole blood HTRF IC50, human whole blood diluted 1:3, 4 h incubation)
O=C1CCCC2(CCN(c3cc(O[C@@H]4COC[C@H]4F)nc(CO)n3)CC2)N1c1ccc(F)c(F)c1 (racemic) [Example 108, rac-1-(3,4-diflurophenyl)-9-(6-(((3R,4R)-4-fluorotetrahydrofuran-3-yl)oxy)-2-(hydroxymethyl)pyrimidin-4-yl)-1,9-diazaspiro[5.5]undecan-2-one]	7.66	–
O=C1CCCC2(CCN(c3cc(N4CCCOCC4)ncn3)CC2)N1c1ccc(F)c(F)c1 [Example 45, 9-(6-(1,4-oxazepan-4-yl)pyrimidin-4-yl)-1-(3,4-difluorophenyl)-1,9-diazaspiro[5.5]undecan-2-one]	6.21	–
O=C1CCCC2(CCN(c3cc(OCC(F)(F)F)n[nH]c3=O)CC2)N1c1ccc(F)c(F)c1 [Example 13, 1-(3,4-difluorophenyl)-9-(3-oxo-6-(2,2,2-trifluoroethoxy)-2,3-dihydropyridazin-4-yl)-1,9-diazaspiro[5.5]undecan-2-one]	7.44	–
CC1(O)CN(c2nc(N)cc(N3CCC4(CCCC(=O)N4c4ccc(F)c(F)c4)CC3)n2)C1 [Example 43, 9-(6-amino-2-(3-hydroxy-3-methylazetidin-1-yl)pyrimidin-4-yl)-1-(3,4-difluorophenyl)-1,9-diazaspiro[5.5]undecan-2-one]	6.40	–
Nc1nc(N2CCC3(CCCC(=O)N3c3ccc(F)c(F)c3)CC2)cc(C(F)(F)F)n1 [Example 76, 9-(2-amino-6-(trifluoromethyl)pyrimidin-4-yl)-1-(3,4-difluorophenyl)-1,9-diazaspiro[5.5]undecan-2-one]	7.24	–
O=C1CCCC2(CCN(c3cc(-n4cc(C(F)(F)F)cn4)nc(CO)n3)CC2)N1c1ccc(F)c(F)c1 (racemic) [Example 67, rac-1-(3,4-difluorophenyl)-9-(2-(1-hydroxymethyl)-6-(4-(trifluoromethyl)-1H-pyrazol-1-yl)pyrimidin-4-yl)1,9-diazaspiro[5.5]undecane-2-one]	8.70	–
Nc1nc(OCC(F)(F)C(F)(F)F)cc(N2CCC3(CCCC(=O)N3c3ccc(F)c(F)c3)CC2)n1 [Example 97]	8.52	–
(S)-1-(3,4-difluorophenyl)-9-(2-(hydroxymethyl)-6-((1,1,1-trifluoropropan-2-yl)oxy)pyrimidin-4-yl)-1,9-diazaspiro[5.5]undecan-2-one or (R)-1-(3,4-difluorophenyl)-9-(2-(hydroxymethyl)-6-((1,1,1-trifluoropropan-2-yl)oxy)pyrimidin-4-yl)-1,9-diazaspiro[5.5]undecan-2-one [Example 110a]	8.52	–
O=C1CCCC2(CCN(c3cc(OC4CCOCC4)nn(Cc4ccccc4)c3=O)CC2)N1c1ccc(F)c(F)c1 [Example 15a, 9-(2-benzyl-3-oxo-6-((tetrahydro-2H-pyran-4-yl)oxy)-2,3-dihydropyridazin-4-yl)-1-(3,4-difluorophenyl)-1,9-diazaspiro[5.5]undecan-2-one]	–	9.00
Nc1nc(-c2ccc(F)cc2)cc(N2CCC3(CCCC(=O)N3c3ccc(F)c(F)c3)CC2)n1 [Example 75]	8.40	–
Nc1nc(O[C@H]2COC[C@H]2F)cc(N2CCC3(CCCC(=O)N3c3ccc(F)c(F)c3)CC2)n1 (racemic) [Example 105, rac-9-(2-amino-6-(((3S,4R)-4-fluorotetrahydrofuran-3-yl)oxy)pyrimidin-4-yl)-1-(3,4-difluorophenyl)-1,9-diazaspiro[5.5]undecan-2-one]	8.22	–
Cc1nc(N2CCC3(CCCC(=O)N3c3ccc(F)c(F)c3)CC2)cc(-n2cccn2)n1 [Example 48, 1-(3,4-difluorophenyl)-9-(2-methyl-6-(1H-pyrazol-1-yl)pyrimidin-4-yl)-1,9-diazaspiro[5.5]undecan-2-one]	7.35	–
O=C1CCCC2(CCN(c3cc(-n4cc(C(F)(F)F)cn4)n[nH]c3=O)CC2)N1c1ccc(F)c(F)c1 [Example 12, 1-(3,4-difluorophenyl)-9-(3-oxo-6-(4-(trifluoromethyl)-1H-pyrazol-1-yl)-2,3-dihydropyridazin-4-yl)-1,9-diazaspiro [5.5] undecane-2-one]	8.70	–
[2H]C([2H])(Oc1cc(N2CCC3(CCCC(=O)N3c3ccc(F)c(F)c3)CC2)nc(N)n1)C(F)(F)F [Example 92, 9-(2-amino-6-(2,2,2-trifluoroethoxy-1,1-d2)pyrimidin-4-yl)-1-(3,4-difluorophenyl)-1,9-diazaspiro[5.5]undecan-2-one]	8.30	–
Nc1nc(N[C@@H]2CCOC2)cc(N2CCC3(CCCC(=O)N3c3ccc(F)c(F)c3)CC2)n1 [Example 112, (R)-9-(2-amino-6-((tetrahydrofuran-3-yl)amino)pyrimidin-4-yl)-1-(3,4-difluorophenyl)-1,9-diazaspiro[5.5]undecan-2-one]	7.17	–
O=C1CCCC2(CCN(c3cc(-c4ncco4)ncn3)CC2)N1c1ccc(F)c(F)c1 [Example 62, 1-(3,4-difluorophenyl)-9-(6-(oxazol-2-yl)pyrimidin-4-yl)-1,9-diazaspiro[5.5]undecan-2-one]	6.39	–
(S)-9-(2-amino-6-(2,2,2-trifluoro-1-(oxetan-3-yl)ethoxy)pyrimidin-4-yl)-1-(3,4-difluorophenyl)-1,9-diazaspiro[5.5]undecan-2-one or (R)-9-(2-amino-6-(2,2,2-trifluoro-1-(oxetan-3-yl)ethoxy)pyrimidin-4-yl)-1-(3,4-difluorophenyl)-1,9-diazaspiro[5.5]undecan-2-one [Example 89a]	9.00	–
Nc1nc(OC2CC(F)(F)C2)cc(N2CCC3(CCCC(=O)N3c3ccc(F)c(F)c3)CC2)n1 [Example 90, 9-(2-amino-6-(3,3-difluorocyclobutoxy)pyrimidin-4-yl)-1-(3,4-difluorophenyl)-1,9-diazaspiro[5.5]undecan-2-one]	8.40	–
CN(C)c1nc(N2CCC3(CCCC(=O)N3c3ccc(F)c(F)c3)CC2)cc(-n2cccn2)n1 [Example 53, 1-(3,4-difluorophenyl)-9-(2-(dimethylamino)-6-(1H-pyrazol-1-yl)pyrimidin-4-yl)-1,9-diazaspiro[5.5]undecan-2-one]	5.94	–
O=C1CCCC2(CCN(c3cc(O[C@@H]4CCOC4)nc(Cl)n3)CC2)N1c1ccc(F)c(F)c1 [Example 70, (R)-9-(2-chloro-6-((tetrahydrofuran-3-yl)oxy)pyrimidin-4-yl)-1-(3,4-difluorophenyl)-1,9-diazaspiro[5.5]undecan-2-one]	6.96	–
(R)-9-(2-amino-6-((1,1,1-trifluoropropan-2-yl)oxy)pyrimidin-4-yl)-1-(3,4-difluorophenyl)-3-oxa-1,9-diazaspiro[5.5]undecan-2-one, or (S)-9-(2-amino-6-((1,1,1-trifluoropropan-2-yl)oxy)pyrimidin-4-yl)-1-(3,4-difluorophenyl)-3-oxa-1,9-diazaspiro[5.5]undecan-2-one [Example 113a]	7.82	–
O=C1CCCC2(CCN(c3cc(-n4cccn4)nc(C(F)(F)F)n3)CC2)N1c1ccc(F)c(F)c1 [Example 51, 9-(6-(1H-pyrazol-1-yl)-2-(trifluoromethyl)pyrimidin-4-yl)-1-(3,4-difluorophenyl)-1,9-diazaspiro[5.5]undecan-2-one]	7.15	–
Nc1nc(OCCO)cc(N2CCC3(CCCC(=O)N3c3ccc(F)c(F)c3)CC2)n1 [Example 94, 9-(2-amino-6-(2-hydroxyethoxy)pyrimidin-4-yl)-1-(3,4-difluorophenyl)-1,9-diazaspiro[5.5]undecan-2-one]	6.08	–
O=C1CCCC2(CCN(c3cc(O[C@H]4CCOC4)nc(CO)n3)CC2)N1c1ccc(F)c(F)c1 [Example 109, (S)-1-(3,4-difluorophenyl)-9-(2-(hydroxymethyl)-6-((tetrahydrofuran-3-yl)oxy)pyrimidin-4-yl)-1,9-diazaspiro[5.5]undecan-2-one]	7.82	–
O=C1CCCC2(CCN(c3cc(Oc4cccc(Cl)c4)cc[n+]3[O-])CC2)N1c1ccc(F)c(F)c1 [Example 34, 4-(3-chlorophenoxy)-2-(1-(3,4-difluorophenyl)-2-oxo-1,9-diazaspiro[5.5]undecan-9-yl)pyridine 1-oxide]	8.70	–
